Reference: ChEMBL document CHEMBL5465560, “Selectivity Literature for EUbOPEN Chemogenomic Library” (2024)
pIC50: −log10 of the molar value.

Experiments:
[1] = target: STE20/SPS1-related proline-alanine-rich protein kinase (Homo sapiens) (UniProt Q9UEW8); assay: Selectivity interaction (Kinase panel (DSF assay)) EUB0001558a STK39
[2] = target: Mitogen-activated protein kinase 7 (Homo sapiens) (UniProt Q13164); assay: Selectivity interaction (KinomeScan (DiscoverX)) EUB0000655a MAPK7; conditions: at 10 µM
[3] = target: Tyrosine-protein kinase Fyn (Homo sapiens) (UniProt P06241); assay: Selectivity interaction (KinomeScan (DiscoverX)) EUB0000655a FYN; conditions: at 10 µM
Activated CDC42 kinase 1 = Activated CDC42 kinase 1 (Homo sapiens, UniProt Q07912); conditions: at 10 µM
[4] = target: 5'-AMP-activated protein kinase catalytic subunit alpha-1 (Homo sapiens, UniProt Q13131); conditions: at 10 µM
[5] = target: Bromodomain testis-specific protein (Homo sapiens) (UniProt Q58F21); assay: Selectivity interaction (Bromodomain panel (DSF asssay)) EUB0000270b BRDT
[6] = target: T1, Kinase suppressor of Ras 2 (Homo sapiens) (UniProt Q6VAB6); assay: Selectivity interaction (ActivX KiNativ screen (kinase selectivity in THP-1 cell lysates)) EUB0000639a KSR2; format: subcellular; conditions: lysate
T1 sequence (whole entry): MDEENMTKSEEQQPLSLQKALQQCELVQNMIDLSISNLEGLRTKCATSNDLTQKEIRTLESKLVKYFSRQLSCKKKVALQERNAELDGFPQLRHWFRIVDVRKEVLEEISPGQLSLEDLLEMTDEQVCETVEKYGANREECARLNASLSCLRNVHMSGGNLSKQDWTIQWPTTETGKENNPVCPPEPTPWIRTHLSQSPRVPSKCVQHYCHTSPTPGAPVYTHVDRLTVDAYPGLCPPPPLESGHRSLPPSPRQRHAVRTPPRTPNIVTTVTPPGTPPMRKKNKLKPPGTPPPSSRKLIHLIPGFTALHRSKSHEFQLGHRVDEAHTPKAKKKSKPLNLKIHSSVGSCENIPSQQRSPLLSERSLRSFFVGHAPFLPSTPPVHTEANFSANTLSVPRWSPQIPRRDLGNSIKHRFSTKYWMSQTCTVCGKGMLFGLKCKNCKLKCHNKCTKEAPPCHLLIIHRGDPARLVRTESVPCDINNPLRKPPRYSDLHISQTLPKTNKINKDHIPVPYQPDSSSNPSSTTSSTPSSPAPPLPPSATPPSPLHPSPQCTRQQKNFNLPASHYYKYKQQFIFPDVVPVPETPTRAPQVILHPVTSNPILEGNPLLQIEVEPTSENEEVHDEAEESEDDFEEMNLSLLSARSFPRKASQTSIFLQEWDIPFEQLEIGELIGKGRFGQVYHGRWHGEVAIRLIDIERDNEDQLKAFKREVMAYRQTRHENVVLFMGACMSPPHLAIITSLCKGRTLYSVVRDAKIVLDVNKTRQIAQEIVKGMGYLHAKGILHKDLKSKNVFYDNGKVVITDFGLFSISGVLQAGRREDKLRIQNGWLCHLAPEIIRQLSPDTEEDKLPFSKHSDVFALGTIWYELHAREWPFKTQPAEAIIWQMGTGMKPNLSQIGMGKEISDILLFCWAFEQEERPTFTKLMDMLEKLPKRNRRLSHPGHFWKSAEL

[7] = target: Tyrosine-protein kinase JAK2 (Homo sapiens, UniProt O60674); assay: Selectivity interaction (KinomeScan (DiscoverX)) EUB0001049a JAK2; conditions: at 1 µM
[8] = target: Cyclin-dependent kinase 4 (Homo sapiens, UniProt P11802); assay: Selectivity interaction (KinomeScan (DiscoverX)) EUB0001049a CDK4; conditions: at 1 µM
[9] = target: Serine/threonine-protein kinase pim-1 (Homo sapiens, UniProt P11309); assay: Selectivity interaction (KinomeScan (DiscoverX)) EUB0000695a PIM1; conditions: at 100 nM
[10] = target: Serine/threonine-protein kinase PAK 4 (Homo sapiens, UniProt O96013); assay: Selectivity interaction (Kinase panel (literature)) EUB0001199aCl PAK4; conditions: at 1 µM
[11] = target: Casein kinase I isoform alpha (Homo sapiens, UniProt P48729); assay: Selectivity interaction (Enzymatic assay) EUB0001199aCl CSNK1A1
[12] = target: T2, Ephrin type-A receptor 8 (Homo sapiens) (UniProt P29322); assay: Selectivity interaction (KinomeScan (DiscoverX)) EUB0000618a EPHA8; conditions: at 10 µM
T2 sequence (whole entry): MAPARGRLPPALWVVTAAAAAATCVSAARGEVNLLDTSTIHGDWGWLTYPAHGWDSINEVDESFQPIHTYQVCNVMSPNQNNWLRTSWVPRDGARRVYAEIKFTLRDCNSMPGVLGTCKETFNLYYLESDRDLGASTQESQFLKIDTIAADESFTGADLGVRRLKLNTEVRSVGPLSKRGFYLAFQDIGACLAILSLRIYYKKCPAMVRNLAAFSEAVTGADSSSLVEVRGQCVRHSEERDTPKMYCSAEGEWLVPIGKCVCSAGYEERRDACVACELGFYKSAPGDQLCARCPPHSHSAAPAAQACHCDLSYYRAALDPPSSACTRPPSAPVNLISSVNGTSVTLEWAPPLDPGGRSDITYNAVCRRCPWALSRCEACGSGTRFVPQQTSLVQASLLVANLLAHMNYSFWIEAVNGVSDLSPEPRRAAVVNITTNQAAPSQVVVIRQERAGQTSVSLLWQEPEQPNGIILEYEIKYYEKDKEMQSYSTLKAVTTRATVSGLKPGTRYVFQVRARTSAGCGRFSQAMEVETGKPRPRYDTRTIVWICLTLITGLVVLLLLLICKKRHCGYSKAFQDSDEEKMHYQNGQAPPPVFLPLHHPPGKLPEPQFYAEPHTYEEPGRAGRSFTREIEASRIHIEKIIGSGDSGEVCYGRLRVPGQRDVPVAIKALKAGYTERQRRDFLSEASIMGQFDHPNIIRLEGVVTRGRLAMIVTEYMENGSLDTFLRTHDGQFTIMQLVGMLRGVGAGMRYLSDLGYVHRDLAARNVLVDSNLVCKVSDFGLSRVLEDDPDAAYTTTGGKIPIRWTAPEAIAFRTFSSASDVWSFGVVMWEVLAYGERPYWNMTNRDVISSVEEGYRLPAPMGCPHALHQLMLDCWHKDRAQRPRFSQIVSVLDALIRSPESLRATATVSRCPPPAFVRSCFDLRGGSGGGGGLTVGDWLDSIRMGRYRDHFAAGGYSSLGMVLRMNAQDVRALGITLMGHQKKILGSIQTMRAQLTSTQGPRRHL

[13] = target: Endothelin-1 receptor (Homo sapiens) (UniProt P25101); assay: Selectivity interaction (Eurofins CEREP Diversity Profile (receptors and ion channels)) EUB0000279b EDNRA; conditions: at 10 µM
[14] = target: Serine/threonine-protein kinase WNK4 (Homo sapiens) (UniProt Q96J92); assay: Selectivity interaction (ActivX KiNativ screen (ex vivo kinase selectivity in human PBMCs)) EUB0001619a WNK4; format: cell-based; conditions: PBMC, at 1 µM
Chain of Serine/threonine-protein kinase WNK4 (Homo sapiens) (Q96J92 whole entry): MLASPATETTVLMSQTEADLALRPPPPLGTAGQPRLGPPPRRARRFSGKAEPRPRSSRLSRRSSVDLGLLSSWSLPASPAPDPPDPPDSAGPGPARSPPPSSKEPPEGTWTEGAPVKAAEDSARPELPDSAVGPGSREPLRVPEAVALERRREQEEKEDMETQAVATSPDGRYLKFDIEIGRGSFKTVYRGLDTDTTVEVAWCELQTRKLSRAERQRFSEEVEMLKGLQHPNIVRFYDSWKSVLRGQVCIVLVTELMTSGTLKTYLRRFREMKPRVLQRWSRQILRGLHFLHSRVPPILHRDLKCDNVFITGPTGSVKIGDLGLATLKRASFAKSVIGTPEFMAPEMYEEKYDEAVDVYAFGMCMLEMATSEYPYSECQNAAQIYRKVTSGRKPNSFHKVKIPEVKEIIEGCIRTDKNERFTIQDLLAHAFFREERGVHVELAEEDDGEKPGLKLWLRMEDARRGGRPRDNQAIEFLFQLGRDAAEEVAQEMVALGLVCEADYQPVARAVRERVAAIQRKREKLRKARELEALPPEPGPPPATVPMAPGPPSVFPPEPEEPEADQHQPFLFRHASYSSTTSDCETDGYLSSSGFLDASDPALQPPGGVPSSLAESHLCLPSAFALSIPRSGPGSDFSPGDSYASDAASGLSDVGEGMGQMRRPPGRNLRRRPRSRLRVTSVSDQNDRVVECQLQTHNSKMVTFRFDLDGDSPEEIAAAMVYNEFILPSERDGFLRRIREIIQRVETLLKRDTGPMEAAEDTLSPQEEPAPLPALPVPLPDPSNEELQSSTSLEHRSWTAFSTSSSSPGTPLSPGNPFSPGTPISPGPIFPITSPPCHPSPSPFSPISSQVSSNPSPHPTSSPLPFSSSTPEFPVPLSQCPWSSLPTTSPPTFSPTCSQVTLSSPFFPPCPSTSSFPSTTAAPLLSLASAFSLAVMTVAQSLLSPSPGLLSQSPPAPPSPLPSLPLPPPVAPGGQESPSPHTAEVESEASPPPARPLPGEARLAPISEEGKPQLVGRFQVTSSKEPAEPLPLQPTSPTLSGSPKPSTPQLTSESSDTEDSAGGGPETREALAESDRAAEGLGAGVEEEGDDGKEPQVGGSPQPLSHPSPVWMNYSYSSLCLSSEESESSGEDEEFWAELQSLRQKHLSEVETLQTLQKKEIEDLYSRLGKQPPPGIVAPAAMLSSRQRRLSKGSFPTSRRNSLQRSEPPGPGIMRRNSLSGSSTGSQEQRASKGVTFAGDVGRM

Chain of Serine/threonine-protein kinase PAK 4 (O96013 whole entry, looked up, canonical isoform): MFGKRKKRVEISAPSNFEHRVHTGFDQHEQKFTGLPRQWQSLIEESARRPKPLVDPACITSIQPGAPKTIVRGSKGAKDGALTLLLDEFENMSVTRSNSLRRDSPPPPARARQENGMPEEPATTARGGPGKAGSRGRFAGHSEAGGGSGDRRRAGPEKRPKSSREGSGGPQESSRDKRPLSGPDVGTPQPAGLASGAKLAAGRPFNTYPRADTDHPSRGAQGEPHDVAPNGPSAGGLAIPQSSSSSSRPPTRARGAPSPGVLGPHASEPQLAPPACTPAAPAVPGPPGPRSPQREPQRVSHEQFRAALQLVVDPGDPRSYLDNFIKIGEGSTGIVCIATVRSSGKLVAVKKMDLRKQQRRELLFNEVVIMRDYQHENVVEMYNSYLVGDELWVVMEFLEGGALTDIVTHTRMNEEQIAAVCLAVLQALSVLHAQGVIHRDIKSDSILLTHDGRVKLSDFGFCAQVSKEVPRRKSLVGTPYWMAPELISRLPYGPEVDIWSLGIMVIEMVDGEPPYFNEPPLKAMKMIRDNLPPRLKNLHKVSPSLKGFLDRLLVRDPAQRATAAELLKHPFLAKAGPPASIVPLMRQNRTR
Chain of Tyrosine-protein kinase JAK2 (O60674 whole entry): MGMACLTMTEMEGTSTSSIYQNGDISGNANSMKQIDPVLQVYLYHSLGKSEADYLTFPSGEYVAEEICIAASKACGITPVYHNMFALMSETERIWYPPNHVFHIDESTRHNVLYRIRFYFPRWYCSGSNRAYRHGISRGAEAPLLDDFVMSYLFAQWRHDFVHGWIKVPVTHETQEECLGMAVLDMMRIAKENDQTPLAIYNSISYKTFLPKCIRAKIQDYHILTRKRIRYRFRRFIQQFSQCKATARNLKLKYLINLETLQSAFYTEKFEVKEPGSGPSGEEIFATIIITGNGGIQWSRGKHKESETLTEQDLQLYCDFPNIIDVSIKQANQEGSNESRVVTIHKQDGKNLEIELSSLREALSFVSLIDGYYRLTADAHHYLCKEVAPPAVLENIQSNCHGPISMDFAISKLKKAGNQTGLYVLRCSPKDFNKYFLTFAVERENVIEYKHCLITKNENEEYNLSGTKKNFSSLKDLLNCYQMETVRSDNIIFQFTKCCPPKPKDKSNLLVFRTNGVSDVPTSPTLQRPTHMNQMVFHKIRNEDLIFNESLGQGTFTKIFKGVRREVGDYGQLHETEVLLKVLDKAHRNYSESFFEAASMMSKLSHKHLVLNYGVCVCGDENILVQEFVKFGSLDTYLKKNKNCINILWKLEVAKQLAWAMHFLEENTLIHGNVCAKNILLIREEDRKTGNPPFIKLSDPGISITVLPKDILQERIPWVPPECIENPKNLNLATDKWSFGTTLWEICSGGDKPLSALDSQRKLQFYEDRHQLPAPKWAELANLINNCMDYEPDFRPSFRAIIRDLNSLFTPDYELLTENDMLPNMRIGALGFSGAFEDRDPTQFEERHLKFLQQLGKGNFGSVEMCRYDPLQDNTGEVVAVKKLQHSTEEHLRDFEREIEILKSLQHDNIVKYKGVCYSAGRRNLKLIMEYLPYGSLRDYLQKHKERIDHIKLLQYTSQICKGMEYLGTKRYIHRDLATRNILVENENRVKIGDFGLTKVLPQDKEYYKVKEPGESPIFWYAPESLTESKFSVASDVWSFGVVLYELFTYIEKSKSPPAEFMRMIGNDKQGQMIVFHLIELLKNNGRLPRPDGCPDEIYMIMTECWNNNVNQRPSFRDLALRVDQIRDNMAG
Chain of Activated CDC42 kinase 1 (Q07912 whole entry, looked up): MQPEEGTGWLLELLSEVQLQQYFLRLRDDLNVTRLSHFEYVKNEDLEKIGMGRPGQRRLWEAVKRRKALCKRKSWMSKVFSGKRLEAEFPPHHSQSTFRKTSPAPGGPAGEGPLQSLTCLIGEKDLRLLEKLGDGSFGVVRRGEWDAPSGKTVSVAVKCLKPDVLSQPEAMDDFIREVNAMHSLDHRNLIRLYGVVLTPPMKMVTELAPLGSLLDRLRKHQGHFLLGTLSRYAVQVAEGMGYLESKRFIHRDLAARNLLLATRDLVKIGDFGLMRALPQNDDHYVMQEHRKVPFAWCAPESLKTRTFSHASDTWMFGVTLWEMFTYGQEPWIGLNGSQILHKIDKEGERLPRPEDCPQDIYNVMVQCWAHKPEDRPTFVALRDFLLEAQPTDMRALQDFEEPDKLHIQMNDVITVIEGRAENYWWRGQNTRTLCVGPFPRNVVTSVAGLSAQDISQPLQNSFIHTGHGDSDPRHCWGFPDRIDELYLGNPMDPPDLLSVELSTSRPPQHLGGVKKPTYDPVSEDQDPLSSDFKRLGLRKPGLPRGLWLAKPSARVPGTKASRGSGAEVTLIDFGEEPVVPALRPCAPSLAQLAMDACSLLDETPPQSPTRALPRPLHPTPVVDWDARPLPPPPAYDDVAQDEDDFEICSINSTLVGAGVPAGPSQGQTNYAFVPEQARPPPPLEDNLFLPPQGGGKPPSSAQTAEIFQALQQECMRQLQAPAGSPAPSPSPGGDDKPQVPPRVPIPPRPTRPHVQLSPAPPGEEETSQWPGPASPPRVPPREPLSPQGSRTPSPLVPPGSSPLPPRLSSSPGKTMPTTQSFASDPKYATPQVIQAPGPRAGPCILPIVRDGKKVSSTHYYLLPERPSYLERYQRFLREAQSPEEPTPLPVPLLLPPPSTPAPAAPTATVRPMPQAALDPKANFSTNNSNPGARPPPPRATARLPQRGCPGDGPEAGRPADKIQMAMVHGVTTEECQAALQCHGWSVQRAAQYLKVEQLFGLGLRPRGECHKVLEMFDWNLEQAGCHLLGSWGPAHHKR
Chain of Endothelin-1 receptor (Homo sapiens) (P25101 whole entry): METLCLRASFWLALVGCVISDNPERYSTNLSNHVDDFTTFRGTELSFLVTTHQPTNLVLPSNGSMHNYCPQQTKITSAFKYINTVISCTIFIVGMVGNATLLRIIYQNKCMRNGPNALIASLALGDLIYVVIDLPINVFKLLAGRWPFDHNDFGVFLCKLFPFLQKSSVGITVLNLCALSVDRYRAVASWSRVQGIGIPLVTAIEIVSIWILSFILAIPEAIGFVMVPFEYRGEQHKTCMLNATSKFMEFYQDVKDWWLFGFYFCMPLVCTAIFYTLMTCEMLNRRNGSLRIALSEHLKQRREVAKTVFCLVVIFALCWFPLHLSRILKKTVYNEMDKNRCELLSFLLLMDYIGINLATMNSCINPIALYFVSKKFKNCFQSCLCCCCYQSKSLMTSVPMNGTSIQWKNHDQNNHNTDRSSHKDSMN
Chain of 5'-AMP-activated protein kinase catalytic subunit alpha-1 (Q13131 whole entry, looked up): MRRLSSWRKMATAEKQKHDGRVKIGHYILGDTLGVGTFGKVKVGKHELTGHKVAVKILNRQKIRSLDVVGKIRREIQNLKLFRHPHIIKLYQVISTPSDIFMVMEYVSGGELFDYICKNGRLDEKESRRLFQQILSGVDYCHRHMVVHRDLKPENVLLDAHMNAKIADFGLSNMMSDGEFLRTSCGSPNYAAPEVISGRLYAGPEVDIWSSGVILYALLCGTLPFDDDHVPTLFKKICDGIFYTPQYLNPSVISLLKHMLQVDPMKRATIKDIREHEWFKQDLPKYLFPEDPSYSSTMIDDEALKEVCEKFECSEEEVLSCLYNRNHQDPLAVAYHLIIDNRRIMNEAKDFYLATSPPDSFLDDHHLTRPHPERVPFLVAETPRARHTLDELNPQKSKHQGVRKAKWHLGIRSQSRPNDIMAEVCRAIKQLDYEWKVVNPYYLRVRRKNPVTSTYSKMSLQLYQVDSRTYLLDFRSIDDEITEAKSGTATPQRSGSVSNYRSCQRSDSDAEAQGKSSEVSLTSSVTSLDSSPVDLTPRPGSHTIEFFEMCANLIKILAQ

CC(C)(O)[C@H](F)CN1Cc2cc(NC(=O)c3cnn4cccnc34)c(N3CCOCC3)cc2C1=O
dTM [1]: 0.2 K

CN(C)CCOc1ccc(-c2nc(-c3ccncc3)c(-c3ccc4c(c3)CC/C4=N\O)[nH]2)cc1
% of control [2]: 97%
% of control [3]: 79%

Cc1cc([C@@H](C)Nc2ccccc2C(=O)O)c2nc(N3CCOCC3)cc(=O)n2c1 [AZD-6482]
% of control (Activated CDC42 kinase 1): 100%
% of control [4]: 100%

Cc1cc(CN)cc(C)c1-c1ncn(C)c1-c1cncn1C
dTM [5]: -1.8 K

CC[C@@H]1[C@H](F)C(=O)N[C@@H]1COc1nccc2cc(C(N)=O)c(OC)cc12 [ZIMLOVISERTIB]
% of inhibition ([6]; at 0.01 µM): 2.4%
% of inhibition ([6]; at 0.2 µM): -8.6%
% of inhibition ([6]; at 1 µM): -32.8%
% of inhibition ([6]; at 5 µM): -57.9%

COc1cc(Nc2nc(C)cc(-c3cnn4nc(OC)ccc34)n2)cc(C(F)(F)F)c1
% of control [7]: 85%
% of control [8]: 70%

Cc1cc(F)c(C(=O)Nc2cccc(-c3nncn3C(C)C)n2)cc1-n1cnc(C2CC2)c1
% of control [9]: 100%

CN1Cc2nccc(-c3cn(C)nc3-c3ccc(F)cc3)c2C1=O
% of inhibition [10]: 7%
pIC50 [11]: 6.20

O[C@H]1CC[C@H](Nc2ncc3nc(Nc4c(F)cc(F)cc4F)n([C@H]4CCOC4)c3n2)CC1
% of control [12]: 72%

CC(=O)c1cc(-c2ccccc2OCC2CC2)c2ncccn12
% of control [13]: 85%

N#Cc1cccc(-c2c[nH]c3ncnc(N4CCOCC4)c23)c1
% of inhibition [14]: -1%
